Measured values taken from patent publication US9278954B2, “Pyrrolidine derivatives, pharmaceutical compositions and uses thereof” (Boehringer Ingelheim International GmbH, priority 2013, dated 2016).

Biological target: human ACC2 (Homo sapiens (Human), UniProt O00763)
Experiment: ACC2 assay (spectrophotometric 384 well assay, NADH-linked kinetic method)
Assay type: biochemical
Details: hACC2 construct lacking the 128 N-terminal amino acids; 25° C., 340 nm over 15 minutes
Procedure: Spectrophotometric 384 Well Assay
Malonyl CoA formation by acetyl CoA carboxylases is stoichometrically linked to the consumption of ATP. ACC2 activity is measured in a NADH-linked kinetic method measuring ADP generated during the ACC reaction using a coupled lactate dehydrogenase/pyruvate kinase reaction.
The protein is then expressed in insect cells using a baculoviral expression system. Protein purification is performed by anion exchange.
All compounds are dissolved in dimethyl sulfoxide (DMSO) to a concentration of 10 mM.
The enzymatic reaction is then started by addition of a mixture of NADH, acetyl
Coenzyme A (both […].) and ATP (500 uM f.c.). The decrease of the optical density (slope S) is then determined at 25° C. at a wavelength of 340 nm over 15 minutes in a spectrophotometric reader.
Each assay microtiter plate contains wells with vehicle instead of compound as controls for the non-inhibited enzyme (100% CTL; ‘HIGH’) and wells without acetyl-CoA as controls for non-specific NADH degradation (0% CTL; ‘LOW’).

human ACC2, sequence (O00763 129-2458): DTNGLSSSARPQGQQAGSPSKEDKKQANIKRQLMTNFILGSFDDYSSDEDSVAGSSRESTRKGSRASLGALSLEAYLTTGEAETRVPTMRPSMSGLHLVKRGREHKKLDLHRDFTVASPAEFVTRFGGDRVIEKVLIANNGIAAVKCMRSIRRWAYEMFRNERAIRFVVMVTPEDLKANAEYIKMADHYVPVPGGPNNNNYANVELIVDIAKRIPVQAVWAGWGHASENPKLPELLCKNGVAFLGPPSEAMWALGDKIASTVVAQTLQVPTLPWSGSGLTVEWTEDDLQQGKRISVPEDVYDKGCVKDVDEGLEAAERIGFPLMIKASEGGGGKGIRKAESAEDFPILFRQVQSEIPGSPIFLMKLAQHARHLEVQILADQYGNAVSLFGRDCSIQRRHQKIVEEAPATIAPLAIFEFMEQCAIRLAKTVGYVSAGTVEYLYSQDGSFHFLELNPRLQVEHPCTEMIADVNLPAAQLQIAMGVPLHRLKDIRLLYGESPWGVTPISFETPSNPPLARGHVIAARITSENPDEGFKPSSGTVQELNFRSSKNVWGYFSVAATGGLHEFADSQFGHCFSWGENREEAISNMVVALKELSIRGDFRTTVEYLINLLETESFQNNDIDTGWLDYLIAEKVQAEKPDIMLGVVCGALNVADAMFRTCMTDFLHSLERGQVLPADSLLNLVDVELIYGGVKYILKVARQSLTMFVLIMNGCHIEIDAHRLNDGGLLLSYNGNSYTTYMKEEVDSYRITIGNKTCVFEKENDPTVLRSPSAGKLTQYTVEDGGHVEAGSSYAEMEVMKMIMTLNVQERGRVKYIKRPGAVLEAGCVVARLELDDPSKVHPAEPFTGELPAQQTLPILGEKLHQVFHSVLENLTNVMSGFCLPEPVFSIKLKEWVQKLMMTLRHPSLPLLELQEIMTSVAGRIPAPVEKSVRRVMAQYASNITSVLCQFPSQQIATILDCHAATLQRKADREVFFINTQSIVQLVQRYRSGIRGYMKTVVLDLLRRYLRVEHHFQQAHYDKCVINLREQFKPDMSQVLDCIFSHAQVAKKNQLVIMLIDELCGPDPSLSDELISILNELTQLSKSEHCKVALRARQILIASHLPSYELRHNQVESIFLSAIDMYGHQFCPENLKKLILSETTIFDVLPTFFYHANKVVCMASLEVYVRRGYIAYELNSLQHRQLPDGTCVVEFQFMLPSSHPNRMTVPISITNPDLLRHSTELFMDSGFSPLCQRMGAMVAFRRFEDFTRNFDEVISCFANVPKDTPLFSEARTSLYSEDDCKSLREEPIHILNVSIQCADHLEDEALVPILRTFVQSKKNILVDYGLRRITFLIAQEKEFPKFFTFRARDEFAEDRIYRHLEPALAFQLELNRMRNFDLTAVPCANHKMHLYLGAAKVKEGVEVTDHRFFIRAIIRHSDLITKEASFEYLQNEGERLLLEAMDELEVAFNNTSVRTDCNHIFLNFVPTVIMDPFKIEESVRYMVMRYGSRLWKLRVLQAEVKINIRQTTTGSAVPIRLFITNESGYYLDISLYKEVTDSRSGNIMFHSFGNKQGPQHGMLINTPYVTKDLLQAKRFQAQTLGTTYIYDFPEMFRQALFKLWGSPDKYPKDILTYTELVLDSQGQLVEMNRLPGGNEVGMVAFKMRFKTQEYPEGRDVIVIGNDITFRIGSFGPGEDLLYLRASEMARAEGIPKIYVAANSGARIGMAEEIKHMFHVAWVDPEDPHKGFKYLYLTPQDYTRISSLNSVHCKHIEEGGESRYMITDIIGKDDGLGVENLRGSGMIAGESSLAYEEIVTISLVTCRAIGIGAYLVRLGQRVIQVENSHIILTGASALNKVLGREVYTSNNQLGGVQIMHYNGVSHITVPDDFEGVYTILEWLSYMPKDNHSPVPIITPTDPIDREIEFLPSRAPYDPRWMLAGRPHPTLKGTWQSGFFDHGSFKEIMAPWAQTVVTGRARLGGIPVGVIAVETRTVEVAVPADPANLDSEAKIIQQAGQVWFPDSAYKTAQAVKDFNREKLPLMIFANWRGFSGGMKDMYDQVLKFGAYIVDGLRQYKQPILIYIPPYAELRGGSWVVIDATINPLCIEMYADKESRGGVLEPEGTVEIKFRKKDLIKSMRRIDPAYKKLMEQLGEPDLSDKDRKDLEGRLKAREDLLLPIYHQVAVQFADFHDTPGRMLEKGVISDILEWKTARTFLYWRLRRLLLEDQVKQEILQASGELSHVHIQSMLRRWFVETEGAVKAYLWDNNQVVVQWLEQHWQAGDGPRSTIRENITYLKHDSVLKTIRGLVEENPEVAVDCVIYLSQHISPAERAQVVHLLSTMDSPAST

SMILES	IC50
CCNC(=O)C(C)c1ccc(O[C@@H]2CCN(c3ccc(OCC)cc3F)C2)cc1 (some centres unmarked) [Example 4.2]	575 nM
CCNC(=O)C(C)c1ccc(O[C@@H]2CCN(c3ccnc(C4CC4)n3)C2)cc1 (stereo partly drawn) [Example 5, 2-(4-[1-(2-Cyclopropyl-pyrimidin-4-yl)-(R)-pyrrolidin-3-yloxy]-phenyl)-N-ethyl-propionamide]	1760 nM
CCNC(=O)C(C)c1ccc(O[C@@H]2CCN(c3ccc(OC4CCC4)cc3)C2)cc1 (stereo partly drawn) [Example 7.1, 2-(4-[1-(4-Cyclobutoxy-phenyl)-(R)-pyrrolidin-3-yloxy]-phenyl)-N-ethyl-propionamide]	41 nM
CCNC(=O)C(C)c1ccc(O[C@@H]2CCN(c3ccc(OC4CCCC4)cc3)C2)cc1 (some centres unmarked) [Example 7.2]	72 nM
CCNC(=O)C(C)c1ccc(O[C@@H]2CCN(c3ccc(OCC4CC4(F)F)cn3)C2)cc1 (some centres unmarked) [Example 7.3]	190 nM
CCNC(=O)C(C)c1ccc(O[C@@H]2CCN(c3cccc(C(F)(F)F)c3)C2)cc1 (some centres unmarked) [Example 7.4]	224 nM
CCCOc1ccc(N2CC[C@@H](Oc3ccc(C(C)C(=O)NCC)cc3)C2)c(Cl)c1 (some centres unmarked) [Example 7.5]	225 nM
CCNC(=O)C(C)c1ccc(O[C@@H]2CCN(c3ccc(F)c(C(F)(F)F)c3)C2)cc1 (some centres unmarked) [Example 7.6]	229 nM
CCNC(=O)C(C)c1ccc(O[C@@H]2CCN(c3ccc(OCC4CC4)cc3)C2)cc1 (some centres unmarked) [Example 7.8]	274 nM
CCNC(=O)C(C)c1ccc(O[C@@H]2CCN(c3cccc(C(F)(F)F)n3)C2)cc1 (some centres unmarked) [Example 7.9]	315 nM
CCNC(=O)C(C)c1ccc(O[C@@H]2CCN(c3ccc4c(c3)OCCCO4)C2)cc1 (some centres unmarked) [Example 7.10]	329 nM
CCNC(=O)C(C)c1ccc(O[C@@H]2CCN(c3cc(C(F)(F)F)ccc3C)C2)cc1 (some centres unmarked) [Example 7.11]	365 nM
CCNC(=O)C(C)c1ccc(O[C@@H]2CCN(c3ccc(OC(C)CC)cc3)C2)cc1 (some centres unmarked) [Example 7.14]	407 nM
CCNC(=O)C(C)c1ccc(O[C@@H]2CCN(c3cccc(C(F)F)n3)C2)cc1 (some centres unmarked) [Example 7.15]	408 nM
CCNC(=O)C(C)c1ccc(O[C@@H]2CCN(c3cccc(C)c3)C2)cc1 (some centres unmarked) [Example 7.16]	410 nM
CCNC(=O)C(C)c1ccc(O[C@@H]2CCN(c3ccc(OCC4CCC4)cc3)C2)cc1 (some centres unmarked) [Example 7.18]	429 nM
CCNC(=O)C(C)c1ccc(O[C@@H]2CCN(c3cccc(Cl)c3)C2)cc1 (some centres unmarked) [Example 7.19]	435 nM
CCNC(=O)C(C)c1ccc(O[C@@H]2CCN(c3cccc(N(C)C)n3)C2)cc1 (some centres unmarked) [Example 7.20]	445 nM

SMILES	IC50
CCNC(=O)C(C)c1ccc(O[C@@H]2CCN(c3ccc(OCCC4CC4)cc3)C2)cc1 (some centres unmarked) [Example 7.21]	454 nM
CCNC(=O)C(C)c1ccc(O[C@@H]2CCN(c3ccc(OC(C)C)cc3)C2)cc1 (some centres unmarked) [Example 7.22]	455 nM
CCNC(=O)C(C)c1ccc(O[C@@H]2CCN(c3ccc(OCC4CC4(F)F)nc3C#N)C2)cc1 (some centres unmarked) [Example 7.23]	470 nM
CCNC(=O)C(C)c1ccc(O[C@@H]2CCN(c3ccc(OCC4CC4)nc3)C2)cc1 (some centres unmarked) [Example 7.24]	473 nM
CCNC(=O)C(C)c1ccc(O[C@@H]2CCN(c3nc(C)ccc3F)C2)cc1 (some centres unmarked) [Example 7.25]	500 nM
CCNC(=O)C(C)c1ccc(O[C@@H]2CCN(c3ccc(F)c(C)n3)C2)cc1 (some centres unmarked) [Example 7.27]	563 nM
CCNC(=O)C(C)c1ccc(O[C@@H]2CCN(c3ccc(OC4CCCCC4)nc3)C2)cc1 (some centres unmarked) [Example 7.28]	583 nM
CCNC(=O)C(C)c1ccc(O[C@@H]2CCN(c3ccc(OC4CC4)cc3C)C2)cc1 (some centres unmarked) [Example 7.29]	600 nM
CCNC(=O)C(C)c1ccc(O[C@@H]2CCN(c3cccc(OC(C)CC)c3)C2)cc1 (some centres unmarked) [Example 7.30]	630 nM
CCNC(=O)C(C)c1ccc(O[C@@H]2CCN(c3ccc(F)c(Cl)c3)C2)cc1 (some centres unmarked) [Example 7.31]	639 nM
CCNC(=O)C(C)c1ccc(O[C@@H]2CCN(c3cccc(C)n3)C2)cc1 (some centres unmarked) [Example 7.33]	821 nM
CCNC(=O)C(C)c1ccc(O[C@@H]2CCN(c3ncc(OC4CCCC4)cc3F)C2)cc1 (stereo partly drawn) [Example 8.1, 2-(4-[1-(5-Cyclopentyloxy-3-fluoro-pyridin-2-yl)-(R)-pyrrolidin-3-yloxy]-phenyl)-N-ethyl-propionamide]	104 nM
CCNC(=O)C(C)c1ccc(O[C@@H]2CCN(c3ccc(F)c(C(F)(F)F)n3)C2)cc1 (some centres unmarked) [Example 8.2]	353 nM
CCNC(=O)C(C)c1ccc(O[C@@H]2CCN(c3ncc(OC(C)C)cc3F)C2)cc1 (some centres unmarked) [Example 8.3]	543 nM
CCNC(=O)C(C)c1ccc(O[C@@H]2CCN(c3ccc(OC4CC4)cn3)C2)cc1 (some centres unmarked) [Example 8.4]	910 nM
CCNC(=O)C(C)c1ccc(O[C@@H]2CCN(c3ncc(OCC4CC4(F)F)cn3)C2)cc1 (stereo partly drawn) [Example 9.1, 2-(4-(1-[5-(2,2-Difluoro-cyclopropylmethoxy)-pyrimidin-2-yl]-(R)-pyrrolidin-3-yloxy)-phenyl)-N-ethyl-propionamide]	444 nM
CCNC(=O)C(C)c1ccc(O[C@@H]2CCN(c3ccnc(C(F)(F)F)n3)C2)cc1 (some centres unmarked) [Example 9.2]	975 nM
